The results in this text go back to patent US20230256094A1, “CANCER RADIOSENSITIZATION BY IN SITU FORMATION OF GOLD NANOPARTICLES AND/OR GOLD NANOCLUSTERS” (BOARD OF REGENTS, THE UNIVERSITY OF TEXAS SYSTEM, priority 2020, published 2023).

The subject of experiment [1] is PANC1 pancreatic cancer. The experiment is described as follows: MTT assay of cell viability after x-ray irradiation. The class given is cell-based, human. The settings on record: 24 hours after irradiation, all radiation dosages greater than 0 Gy, 0.20 mM. Here is the method: FIG. 26 presents evidence of radiosensitization, quantifying the cell viability resulting from X-ray damage through MTT assay measured 24 and 96 hours after x-ray irradiation, resulting from 24 hour, 0.20 mM Au^3+ treatments (right bar in each dosage pair) compared against non-treated (left bar in each dosage pair) combined with either 0 Gy or 8 Gy x-ray irradiation. Treatments are in full cell media to PANC1 pancreatic cancer.
In general terms: Tetrazolium dyes change colour on reduction, which living cells bring about.

Experiment [2] relates to LTPA pancreatic cancer cells. The experiment is described as follows: Clonogenic assay after X-ray irradiation. It is filed as cell-based. As to conditions: 0.1 mM, 24 hours; for radiosensitization effect as compared to untreated control: cancer cells, X-rays 0 to 8 Gy. On the procedure:
(§1) Radiosensitization due to intracellular GNC formation (i.e., delivery of Au^3+) was compared between cancerous and non-cancerous cells using a standard clonal assay. For radiosensitization, cells were incubated with 0.1 mM of buffered chloroauric acid in cell culture media for 24 hours. Then, the cells were lifted and plated in 30 mm culture dishes at optimized cell densities for observation of colony formation following irradiation with X-rays at dosages ranging from 0 to 8 Gy (XRAD SmART). […] The radiosensitization results correlated well with the fluorescence images showing greater production of GNCs by cancerous cells (FIG. 6A-6B). For LTPA pancreatic cancer cells the surviving fraction values decreased by a factor of 2.3x and 3.5x for radiation of 4 Gy and 6 Gy, respectively, in cells treated with gold atoms compared to untreated control (FIG. 6B). This relative decrease in surviving fraction is similar or better than previously reported values observed in cells treated with pre-synthetized GNPs. We believe that the observed improvement in radiation efficiency in killing cancer cells might be associated with a strong nuclear localization of in situ synthetized GNCs.

Experiment [3] deals with pancreatic non-cancerous cells (MS1). In words: Clonogenic assay after X-ray irradiation. The settings on record: 0.1 mM, 24 hours, X-rays 0 to 8 Gy. The class given is cell-based. On the procedure: as §1
For experiment [4], the system named is PANC1 pancreatic cancer. The experiment is described as follows: TBARS assay of peroxidation product formation. It is filed as cell-based, human. The settings on record: 24 hr post irradiation. Here is the method: FIG. 25 reports on a mechanistic study of radiosensitization quantifying the ratio of peroxidation product formation resulting from X-ray damage through TBARS assay, resulting from 24 hour, 0.20 mM Au^3+ treatments (right) compared against non-treated (left) combined with either 0 Gy or 8 Gy x-ray irradiation. Treatments are in full cell media to PANC1 pancreatic cancer.
Further, we characterized the mechanisms of radiosensitization through (i) quantification of double stranded DNA breaks via y-H2AX Foci (FIG. 21), (ii) mitochondrial polarization via JC-1 assay (FIG. 22), (iii) NADP total (FIG. 23) and NADP:NADPH ratio (FIG. 24) via NADP(H) assay, and (iv) peroxidation production via TBARS assay (FIG. 25).

Experiment [5] concerns thyroid cancer. In words: gamma H2AX foci after x-ray irradiation, thyroid cancer. The class given is cell-based. As to conditions: 24 hours after x-ray irradiation, 0 or 8 Gy, 0.20 mM. From the text: Treatments are in full cell media.
The mark [6] stands for this setting: listed as buffered chloroauric acid.

For the compound `[Au+3].[Cl-].[Cl-].[Cl-].[Cl-].[H+]` [Au^3+, chloroauric acid], in experiment [1], the “cell viability vs untreated controls (MTT)” value is given as “significantly lower cell viability”. Further, the “factor of decrease of surviving fraction compared to untreated control” value in experiment [2] (4 Gy) came to 2.3 x; in experiment [2] (6 Gy), 3.5 x. For the same compound, the “radiosensitization effect as compared to untreated control” value in experiment [2] is listed as “significant radiosensitization effect”; in experiment [2] (setting [6]), “significantly greater radiosensitization effect”. In addition, the “radiosensitization in non-cancerous cells” value in experiment [3] was “no radiosensitization”; in experiment [3] (setting [6]), “no significant radiosensitization”. In experiment [4], the “increase in peroxidation product formation” value was about 2 x. Further, the “radiosensitization via induced double stranded DNA breaks (gamma H2AX foci)” value in experiment [5] is on record as “evidence of radiosensitization via induced double stranded DNA breaks”.
